The results in this text go back to ChEMBL document CHEMBL1122277, “l-1,2,3,4-Tetrahydro-8-methoxy-5-(methylthio)-2-naphthalenamine: a potent and selective agonist at alpha 1-adrenoceptors” (J Med Chem, 1983).

What all share (assay type): functional
For assay [1], the species on record is Oryctolagus cuniculus. Put plainly: (§1) Alpha-1-adrenergic potency measured in the isolated rabbit ear artery.
The species entered for assay [2] is Oryctolagus cuniculus. The description is as §1. This is another data set of the same source.
The test system of assay [3] is Oryctolagus cuniculus. Put plainly: Blockade of the constrictor response to exogenously administered L-norepinephrine.

Take `COc1ccc(SC)c2c1CC(N)CC2` (centres undefined): the EC50 in the assay listed under Oryctolagus cuniculus [1] worked out at 9 nM; in the assay listed under Oryctolagus cuniculus [2], 60 nM.
In the assay with Oryctolagus cuniculus [3], `COc1cc2nc(N3CCN(C(=O)c4ccco4)CC3)nc(N)c2cc1OC` [PRAZOSIN] displayed a KB of 2.7 nM.
The same measure, in the same setting: for `COC(=O)[C@@H]1[C@H]2C[C@H]3c4[nH]c5ccccc5c4CCN3C[C@@H]2CC[C@@H]1O` [YOHIMBINE] the value was 4000 nM.

The EC50 is the midpoint of the concentration-response curve. The low end stands for higher potency in that assay, the high end for lower potency in that assay.
